# Laboratory results taken from paper PMC9821843, “Powerful Potential of Polyfluoroalkyl-Containing 4-Arylhydrazinylidenepyrazol-3-ones for Pharmaceuticals” (Molecules, 2022).
# Read-outs that look alike come from different tables or passages of the source.
# Columns and labels:
# [1] = test system: Sprague-Dawley (SD) rats; assay: Hot plate test (analgesic activity); type: in vivo; settings: ip; for change in vivo at 15 mg/kg: Rattus norvegicus
# Protocol: The hot plate test was conducted according to established guidelines on Sprague-Dawley (SD) rats (3 male and 3 female rodents per group). The compounds were intraperitoneally administered in the form of suspensions in 1% starch mucilage. Negative control group animals received vehicle only (1% starch mucilage). Diclofenac sodium (Hemofarm, Vršac, Serbia, 10 mg/kg in 1% starch mucilage solution) or metamizole sodium (PAO Biosynthesis, Sun Pharma, Penza, Russia, 15 mg/kg in 1% starch mucilage solution) were used as reference drugs. One and two hours after the injection, rats were placed on an electrically heated to 50 °C plate (Hot plate 60,200 series, TSE-systems, Bad Homburg, Germany) in a Plexiglas cylindrical restrainer (19 cm diameter × 30 cm). The nociceptive response time was measured by observing the appearance of rats’ movements (e.g., jumping, hind paw licking or shaking). Maximal cutoff time was set as 30 s regardless of the response in order to preclude skin damage.
# Differences between the values of the latency period for the treated (experimental) and control groups of animals were considered significant at p ≤ 0.05.
# [2] = test system: Candida albicans RCPF Y 401/NCTC 885/653; assay: Antifungal susceptibility testing, C. albicans; settings: NCTC885, read-out: MIC for fungi strains inhibition, C. albicans
# Text: (§3) The solvent was DMSO. […] In each test, a growth control and a sterility control were used.
# [3] = Oxygen radical absorbance capacity (ORAC-FL) assay; settings: n.a. = inactive; i.t.s. = interferes with test system
# Text: We evaluated the primary antioxidant activity of synthesized 4-AHPs 5–9 in comparison with their non-fluorinated analogues 9a,b using three standard tests: ABTS, FRAP (ferric reducing antioxidant power) and ORAC (oxygen radical absorbance capacity) assays. The ABTS assay evaluates the binding of a model ABTS radical cation (ABTS^•+), which is realized by the mechanism of single electron transfer (SET) and/or hydrogen atom transfer (HAT). The FRAP assay measures the ability of compounds to reduce the ferric 2,4,6-tripyridyl-s-triazine complex [Fe(TPTZ)2]^3+ to [Fe(TPTZ)2]^2+, which occurs exclusively by the SET mechanism. The ORAC-FL assay measures the oxidative degradation of the fluorescent molecule (FL – fluorescein) after being mixed with a free peroxyl radical generator such as 2,2′-azobis-(2-methylpropionamidine) dihydrochloride (AAPH) in the presence of antioxidant (tested compound). The ORAC-FL test describes the antioxidants’ ability to yield the hydrogen atom and, consequently, it is a HAT-based assay. Trolox was used in all tests as a reference antioxidant: the antioxidant activity of the test compounds was referred to the activity of Trolox. The well-known antioxidant Edaravone was also used for comparison.
# The ORAC assay was performed according to the known method, with minor variations and described by us recently.
# [4] = molecular target: porcine liver carboxylesterase (CES, EC 3.1.1.1) (Sus scrofa, UniProt Q29550); assay: Inhibition of porcine liver carboxylesterase (4-NPA colorimetric assay); type: biochemical; settings: mean ± SEM, n = 3; for inhibition at 20 µM: n.a. = inactive at 20 µM
# Text: (§1) The following enzymes were purchased from Sigma-Aldrich (Saint Louis, MO, USA): porcine liver carboxylesterase (CES, EC 3.1.1.1), human erythrocyte acetylcholinesterase (AChE, EC 3.1.1.7) and equine serum butyrylcholinesterase (BChE, EC 3.1.1.8). Substrates for CES, AChE and BChE were 4-nitrophenyl acetate (4-NPA), acetylthiocholine iodide (ATCh) and butyrylthiocholine iodide (BTCh), respectively, and the colorimetric reagent for the AChE and BChE assays was 5,5’-dithio-bis-(2-nitrobenzoic acid) (DTNB) (Sigma-Aldrich). All the kinetic experiments were performed under standard conditions, according to the protocol of IPAC RAS for a reversible inhibitors study.
# The CES (porcine liver) activity was assessed colorimetrically in 0.1 M K/Na phosphate buffer pH 8.0, 25 °C, by measuring the absorbance of 4-nitrophenol at 405 nm. Final enzyme and substrate (4-NPA) concentrations were 0.02 unit/mL and 1 mM, respectively. Reagent blanks included all constituents except enzyme.
# Test compounds were dissolved in DMSO. Reaction mixtures contained a final DMSO concentration of 2% (v/v). Enzyme inhibition was first assessed at a single concentration of 20 µM for each compound after a 5 min incubation at 25 °C in three separate experiments. […] Substrate was then added and residual enzyme activity relative to an inhibitor-free control was measured using a Bio-Rad Benchmark Plus microplate reader (Marnes-la-Coquette, France).
# Measurements were performed in a Bio-Rad Benchmark Plus microplate reader. Each experiment was performed in triplicate. Plots, linear regressions and values of IC50, were determined using Origin 6.1 for Windows, OriginLab (Northampton, MA, USA). Results were calculated using GraphPad Prism version 6.05 for Windows, GraphPad Software (La Jolla, CA, USA) and presented as mean ± SEM.
# [5] = molecular target: T1, equine serum butyrylcholinesterase (BChE, EC 3.1.1.8) (Equus caballus, UniProt P81908); assay: Inhibition of equine serum butyrylcholinesterase (Ellman assay); type: biochemical; settings: read-out: Inhibition % at 20 µM, Equine BChE
# T1 construct: equine serum butyrylcholinesterase (BChE, EC 3.1.1.8); purchased Sigma-Aldrich (Saint Louis, MO, USA); host or cells: equine serum
# Text: as §1
# Final concentrations of reactants were 0.33 mM DTNB, 0.02 unit/mL of AChE or BChE and 1 mM of substrate (ATCh or BTCh, respectively). Reagent blanks consisted of reaction mixtures without enzyme to assess non-enzymatic hydrolysis of substrates.
# Test compounds were dissolved in DMSO. Reaction mixtures contained a final DMSO concentration of 2% (v/v). […] Substrate was then added and residual enzyme activity relative to an inhibitor-free control was measured using a Bio-Rad Benchmark Plus microplate reader (Marnes-la-Coquette, France).
# (§2) Measurements were performed in a Bio-Rad Benchmark Plus microplate reader. Each experiment was performed in triplicate. Plots, linear regressions and values of IC50, were determined using Origin 6.1 for Windows, OriginLab (Northampton, MA, USA).
# [6] = test system: Epidermophyton floccosum RCPF F 1659/17; assay: Antifungal susceptibility testing, E. floccosum; settings: Epidermophyton floccosum, RCPFF1659/17, read-out: MIC for fungi strains inhibition, E. floccosum
# Text: as §3
# [7] = test system: Neisseria gonorrhoeae ATCC 49226/NCTC 12700; assay: Antibacterial activity against Neisseria gonorrhoeae; type: cell-based; settings: read-out: MIC against Neisseria gonorrhoeae
# Protocol: Antibacterial activity testing was done on the growth medium Difco GC medium base (Becton Dickinson, Franklin Lakes, NJ, USA) supplemented with 1% IsoVitaleX. Dilutions of chemical compounds were carried out in the range of 250–0.12 μg/mL in 24 well sterile plates (Sarstedt, Germany). Daily cultures of control bacterial strains were identified on a VITEK MS analyzer (BioMérieux, Marcy-l’Étoile, France) by MALDI-TOF mass spectrometry. The inoculation dose of N. gonorrhoeae inoculum was 10^5 CFU/mL.
# [8] = test system: Microsporum canis RCPF F 1643/1585; assay: Antifungal susceptibility testing, M. canis; settings: Microsporum canis, RCPFF1643/1585, read-out: MIC for fungi strains inhibition, M. canis
# Text: as §3
# [9] = test system: Trichophyton rubrum RCPF F 1408; assay: Antifungal susceptibility testing, T. rubrum; settings: Trichophyton rubrum, RCPFF1408, read-out: MIC for fungi strains inhibition, T. rubrum
# Text: as §3
# [10] = molecular target: T2, human erythrocyte acetylcholinesterase (AChE, EC 3.1.1.7) (Homo sapiens, UniProt P22303); assay: Inhibition of human erythrocyte acetylcholinesterase (Ellman assay); type: biochemical; settings: read-out: Inhibition % at 20 µM, Human AChE
# T2 construct: human erythrocyte acetylcholinesterase (AChE, EC 3.1.1.7); purchased Sigma-Aldrich (Saint Louis, MO, USA); host or cells: human erythrocytes
# Text: as §1
# Reagent blanks consisted of reaction mixtures without enzyme to assess non-enzymatic hydrolysis of substrates.
# as §2, with “Test compounds were dissolved in DMSO. Reaction mixtures contained a final DMSO concentration of 2% (v/v). […] Measurements” for “Measurements”
# [11] = Acute toxicity evaluation in mice (ip); settings: CD-1, mouse, in vivo, 300 mg/kg
# Protocol: The toxicity evaluation was performed on CD-1 mice. […] The tested compounds in 1% starch mucilage were injected intraperitoneally into three mice. Then, animals were observed during 14 days, the number of deaths was counted and % of viability calculated.
# [12] = ABTS radical cation scavenging activity assay; settings: mean ± SEM
# Protocol: Radical scavenging activity of the compounds was evaluated by the ABTS radical cation (ABTS^•+) scavenging assay by the ability of the compounds to decolorize the ABTS^•+ solution [112] with some modifications. Trolox was used as a reference standard. Edaravone was used as the comparison compound. All tested compounds and standards were dissolved in DMSO. ABTS (2,2′-azinobis-(3-ethylbenzothiazoline-6-sulfonic acid)) was purchased from Tokyo Chemical Industry Co. Ltd. (Tokyo, Japan). Potassium persulfate (di-potassium peroxdisulfate), Trolox® (6-hydroxy-2,5,7,8-tetramethychroman-2-carboxylic acid), ascorbic acid, DMSO and HPLC-grade ethanol were obtained from Sigma-Aldrich Chemical Co. Aqueous solutions were prepared using deionized water.
# The solution of ABTS^•+ was produced by mixing 7 mM ABTS aqueous solution with 2.45 mM potassium persulfate aqueous solution in equal quantities and allowing them to react for 12–16 h at room temperature in the dark. Radical scavenging capacity of the compounds was analyzed by mixing 10 μL of compound with 240 μL of ABTS^•+ working solution in ethanol (100 μM final concentration), and after 1 h of incubation at 30 °C the decrease in absorbance was measured spectrophotometrically at 734 nm using a Bio-Rad xMark microplate UV/VIS spectrophotometer (Bio-Rad, Hercules, CA, USA). The compounds were tested in the concentration range of 5 × 10^–7–4 × 10^–4 M. Ethanol blanks were run in each assay. Values were obtained from five replicates of each sample and three independent experiments.
# Antioxidant activity was calculated as Trolox equivalent antioxidant capacity (TEAC values), consisting of the ratio between the slopes obtained from the linear correlation for concentrations of the tested compounds and Trolox with absorbance of ABTS radical. For the test compounds, which reduce ABTS^•+ absorbance by more than 60% at 100 µM, we also determined IC50 values as 50% reduction of the ABTS radical. The calculations were carried out using Origin 6.1 for Windows. Results were presented as mean ± SEM, calculated using GraphPad Prism version 6.05 for Windows, GraphPad Software.
# [13] = hot plate test, rats, dose 15 mg/kg, 1 h, n.a. = inactive (p > 0.05), read-out: Latent Period Prolongation, % 1 h
# [14] = hot plate test, rats, dose 15 mg/kg, 2 h, n.a. = inactive (p > 0.05), read-out: Latent Period Prolongation, % 2 h
# Chain of porcine liver carboxylesterase (CES, EC 3.1.1.1) (Q29550 19-566): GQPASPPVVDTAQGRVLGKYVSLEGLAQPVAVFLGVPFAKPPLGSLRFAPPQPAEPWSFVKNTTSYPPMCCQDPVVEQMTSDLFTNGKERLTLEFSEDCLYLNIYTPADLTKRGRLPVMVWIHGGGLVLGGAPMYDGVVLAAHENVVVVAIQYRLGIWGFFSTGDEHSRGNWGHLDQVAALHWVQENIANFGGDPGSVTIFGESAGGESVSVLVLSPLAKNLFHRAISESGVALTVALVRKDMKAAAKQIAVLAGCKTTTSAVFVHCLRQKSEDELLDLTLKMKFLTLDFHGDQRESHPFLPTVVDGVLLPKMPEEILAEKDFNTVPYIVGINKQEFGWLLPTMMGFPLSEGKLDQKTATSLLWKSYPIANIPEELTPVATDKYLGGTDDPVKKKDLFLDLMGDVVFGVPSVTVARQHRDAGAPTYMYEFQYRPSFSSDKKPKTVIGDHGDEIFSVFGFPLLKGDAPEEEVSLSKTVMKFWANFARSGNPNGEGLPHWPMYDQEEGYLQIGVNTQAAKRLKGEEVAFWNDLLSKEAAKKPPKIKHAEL
# T2 sequence (P22303 32-617 isoform P22303-2 limits assumed): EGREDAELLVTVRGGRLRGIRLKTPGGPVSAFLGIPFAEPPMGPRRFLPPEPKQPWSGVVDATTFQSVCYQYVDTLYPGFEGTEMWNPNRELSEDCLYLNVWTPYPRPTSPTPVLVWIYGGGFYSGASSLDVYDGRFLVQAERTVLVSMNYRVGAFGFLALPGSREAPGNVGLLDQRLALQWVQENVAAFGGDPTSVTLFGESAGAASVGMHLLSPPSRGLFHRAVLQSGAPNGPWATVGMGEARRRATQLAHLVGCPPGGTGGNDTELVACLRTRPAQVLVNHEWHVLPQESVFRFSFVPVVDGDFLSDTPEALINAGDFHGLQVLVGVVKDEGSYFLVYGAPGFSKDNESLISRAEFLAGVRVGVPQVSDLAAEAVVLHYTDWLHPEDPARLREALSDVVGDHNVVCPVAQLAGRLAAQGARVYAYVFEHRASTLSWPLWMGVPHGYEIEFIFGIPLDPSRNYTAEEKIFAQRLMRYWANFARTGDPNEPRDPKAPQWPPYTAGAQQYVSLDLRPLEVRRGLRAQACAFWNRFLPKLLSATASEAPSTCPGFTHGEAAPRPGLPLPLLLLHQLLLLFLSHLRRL
# T1 sequence (P81908 whole entry): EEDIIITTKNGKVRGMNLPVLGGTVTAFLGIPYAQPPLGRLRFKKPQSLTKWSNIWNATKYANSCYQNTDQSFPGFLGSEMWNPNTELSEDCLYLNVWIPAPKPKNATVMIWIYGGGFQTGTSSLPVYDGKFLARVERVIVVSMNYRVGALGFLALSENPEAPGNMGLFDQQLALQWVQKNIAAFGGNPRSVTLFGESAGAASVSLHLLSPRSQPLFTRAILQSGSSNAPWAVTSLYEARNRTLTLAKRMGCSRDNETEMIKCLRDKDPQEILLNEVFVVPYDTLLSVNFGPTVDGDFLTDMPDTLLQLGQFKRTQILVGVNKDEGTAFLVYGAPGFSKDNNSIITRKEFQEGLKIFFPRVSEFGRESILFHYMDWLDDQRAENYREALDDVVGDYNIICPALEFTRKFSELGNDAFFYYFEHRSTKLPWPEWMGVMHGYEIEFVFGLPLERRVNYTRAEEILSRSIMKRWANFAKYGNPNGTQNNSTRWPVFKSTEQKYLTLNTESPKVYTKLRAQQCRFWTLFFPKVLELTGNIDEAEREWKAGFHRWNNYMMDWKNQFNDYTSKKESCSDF
Structure (SMILES),"change in vivo at 15 mg/kg [1, 13]","change in vivo at 15 mg/kg [1, 14]",MIC [2],"ORAC-FL (TE, antioxidant activity in Trolox equivalents) [3]",inhibition at 20 µM [4],inhibition at 20 µM [5],MIC [6],MIC [7],MIC [8],MIC [9],inhibition at 20 µM [10],survival at 14 days [11],"analgesic activity in the hot plate test ([1]; SD rats, dose 15 mg/kg, 1 and 2 h)","change in vivo at 15 mg/kg ([1]; 1 h, read-out: Latent Period Prolongation, % 1 h)","change in vivo at 15 mg/kg ([1]; 2 h, read-out: Latent Period Prolongation, % 2 h)",IC50 [12],"ABTS•+-scavenging activity, TEAC (trolox equivalent antioxidant capacity) ([12]; n.a. = inactive)","IC50 ([4]; read-out: Inhibitory Activity IC50 ± SEM, Porcine CES)"
"O=C1/C(=N\Nc2ccccc2Cl)C(C(F)(F)F)=NN1c1ccccc1 [5i, (4Z)-4-[2-(2-Chlorophenyl)hydrazinylidene]-2-phenyl-5-(trifluoromethyl)-2,4-dihydro-3H-pyrazol-3-one]",42%,61%,> 200 µg/mL,i.t.s.,23.2 ± 1.8%,6.4 ± 1.3%,> 200 µg/mL,> 250 µg/mL,> 200 µg/mL,> 200 µg/mL,6.3 ± 1%,100%,,,,,,
"O=C1/C(=N\Nc2ccc(S(=O)(=O)O)cc2)C(C(F)(F)F)=NN1c1ccccc1 [5o, (4Z)-4-(2-[4-(Sulfo)phenyl]hydrazinylidene)-2-phenyl-5-(trifluoromethyl)-2,4-dihydro-3H-pyrazol-3-one]",109%,54%,,i.t.s.,5.2 ± 1%,7.4 ± 1.2%,,62.5 µg/mL,,,,100%,,,,,,
"O=C1/C(=N\Nc2ccc(Cl)cc2Cl)C(C(F)(F)C(F)(F)F)=NN1c1ccccc1 [6f, (4Z)-4-[2-(2,4-Dichlorophenyl)hydrazinylidene]-5-(pentafluoroethyl)-2-phenyl-2,4-dihydro-3H-pyrazol-3-one]",,,> 200 µg/mL,,6.6 ± 0.9%,4.3 ± 0.8%,200 µg/mL,> 250 µg/mL,> 200 µg/mL,> 200 µg/mL,3.4 ± 0.7%,100%,inactive,,,,,
"Cc1ccc(N/N=C2\C(=O)N(c3ccccc3)N=C2C(F)(F)C(F)(F)C(F)(F)C(F)(F)F)cc1 [8b, (4Z)-5-(Nonafluorobutyl)-4-[2-(4-methylphenyl)hydrazinylidene]-2-phenyl-2,4-dihydro-3H-pyrazol-3-one]",,,,,12.1 ± 1.9%,,,> 250 µg/mL,,,9 ± 1.4%,100%,,95.2%,125%,> 400 µM,0.05 ± 0.03,
"O=[N+]([O-])c1ccc(OP(=O)(O)Oc2ccc([N+](=O)[O-])cc2)cc1 [BNPP, reference compound]",,,,,,,,,,,,,,,,,,1800 ± 110 nM
